# In PMC12562379, “Facile Synthesis of N-vinylindoles via Knoevenagel Condensation: Molecular Features and Biological Activities” (International Journal of Molecular Sciences, 2025):
# Key:
# HeLa = assay: MTT assay, cytotoxic activity; type: cell-based, human; details: Homo sapiens, 24 h, n = 12
# Procedure: (§1) The human ovarian SKOV-3, gastric adenocarcinoma AGS, cervical HeLa cell lines and non-cancerous keratinocytes HaCaT were obtained from the American Type Culture Collection (ATCC, Manassas, VA, USA). The cell lines were cultured in McCoy’s Medium, Dulbecco’s Modified Eagle’s Medium/F12, and DMEM, respectively (Merck Millipore, Burlington, MA, USA). Penicillin (100 units/mL), streptomycin ([…]), and 10% (v/v) fetal bovine serum (FBS) were added to all the media. The cells were incubated at 37 °C and 5% CO2.
# (§2) To estimate the cytotoxic activity of the obtained compounds 2a-i, MTT assay was used. The cells (5 × 10^3 cells/well) were treated with the compounds in a range of concentrations 1–150 µg/mL. […] After 24 h, MTT solution (0.5 mg/mL) was added to the cells. Formazan crystals were dissolved in DMSO and the absorbance was measured with a microtiter plate reader (Epoch, BioTek Instruments, Winooski, VT, USA).
# SKOV-3 = assay: MTT assay, cytotoxic activity; type: cell-based, human; details: Homo sapiens, SK-OV-3; SKOV-3, MTT, 24 h, n = 12
# Procedure: as §1, §2
# AGS = assay: MTT assay, cytotoxic activity; type: cell-based, human; details: Homo sapiens, 24 h, n = 12
# Procedure: as §1, §2
# HaCaT = assay: MTT assay, cytotoxic activity on non-cancerous keratinocytes; type: cell-based; details: Homo sapiens, 24 h, n = 12
# Procedure: as §1, §2
# [1] = system: HeLa, SKOV-3, AGS (and HaCaT) cell lines; assay: MTT assay, ranges stated over several cell lines; type: cell-based, human; details: Homo sapiens
# Procedure: as §1, §2
# E. coli ATCC 8739 = assay: Microbroth dilution assay; type: cell-based; details: Escherichia coli, ATCC8739, E. coli ATCC 8739; for MIC: read-out: MIC
# Procedure: (§3) The minimum inhibitory concentration (MIC) and minimum bactericidal/fungicidal concentration (MBC/MFC) of the tested compounds were determined by the microbroth dilution technique using 96-well plates based on the methodology described in the EUCAST (European Committee on Antimicrobial Susceptibility Testing) standards. Reference and clinical strains of Gram-positive (Staphylococcus aureus ATCC 6538, Staphylococuccus aureus MRSA 6347) and Gram-negative (Escherichia coli ATCC 8739) bacteria, and yeast (Candida albicans ATCC 10231, Candida glabrata ATCC 2001) were used for the assay. The studies were carried out in the Mueller–Hinton (MH) broth for bacteria and RPMI 1640 broth + MOPS (Sigma-Aldrich, Poland) buffer in the case of yeast. The dry test samples were dissolved in DMSO (dimethyl sulfoxide), resulting in a final concentration of 15 mg/mL, and then diluted in a geometric progression. Ampicillin (Sigma-Aldrich, Poland) acted as a control sample (512 to 4 µg/mL) for bacteria and ketoconazole (128 to 1 µg/mL) (Sigma-Aldrich, Poland) acted as a control sample for yeast. The cultures of microorganisms were prepared by transferring cells from the stock cultures to tubes with the appropriate broth and incubated with agitation in an aerobic atmosphere for 18 ± 2 h at 35 ± 1 °C; next, they were diluted to achieve an optical density corresponding to 5 × 105 (bacteria) or 2 × 105 (yeast) colony-forming units per mL (cfu/mL). An appropriate media (96 µL), along with the tested compounds with a final concentration range of 300–3.1 µg/mL (4 µL) and next microbial suspension (100 µL) were added to each well. Plates with samples were incubated in adequate conditions described above and microbial growth was assessed. […] (>90%; ketoconazole) but 50% (for other compounds) inhibits visible growth of yeasts. Next, as a control of microbial viability, 100 µL of the samples from each well without growth was inoculated on the MH or RPMI agar plates and incubated for 18 ± 2 h at 35 ± 1 °C and finally, the CFU was counted. The MBC/MFC was determined as the minimum concentration of compounds required to kill 99.9% the organisms.
# [2] = target: T1, AGE2-BSA/sRAGE interaction (Homo sapiens, UniProt Q15109); assay: ELISA AGE2-BSA/sRAGE inhibitory screening; type: binding; details: for Inhibition (%) of AGE2-BSA/sRAGE interaction: 100 µM
# T1 construct: purchased Creative BioMart
# Procedure: The in vitro inhibitor screening of AGE2 (glyceraldehyde-modified AGE)-sRAGE interaction (soluble RAGE) was performed using a 96-well AGE-BSA-coated plate (Creative BioMart® ELISA kit, Shirley, NY, USA), according to the manufacturer’s instructions. 100 UA/mL soluble RAGE (sRAGE) was incubated with 100 μM of the tested compounds or 0.05% DMSO as a negative control on an AGE2-BSA-coated plate at room temperature for 60 min, shaking at 300 rpm on an orbital microplate shaker. After incubation, the wells were washed 4 times with wash buffer and horseradish peroxidase (HRP)-labeled anti-RAGE antibody was added and the plate was further incubated at room temperature for 60 min, shaking at 300 rpm on an orbital microplate shaker. After incubation, the wells were washed 4 times with wash buffer and the Substrate Reagent was added to each well. After an incubation at room temperature for 5 min, the HRP-labeled antibody sRAGE-AGE complex was then detected by measuring the absorbance at 450 nm using the microplate reader Varioskan (Thermo Fischer Scientific). These experiments were repeated two times.
# C. albicans ATCC 10231 = assay: Microbroth dilution assay; type: cell-based, Candida albicans; details: Candida albicans, ATCC10231, C. albicans ATCC 10231; for MFC: read-out: MFC; for MIC: read-out: MIC
# Procedure: as §3
# C. glabrata ATCC 2001 = assay: Microbroth dilution assay; type: cell-based, Candida glabrata; details: Nakaseomyces glabratus, ATCC2001
# Procedure: as §3
# S. aureus ATCC 6535 = assay: Microbroth dilution assay; type: cell-based; details: Staphylococcus aureus, ATCC6535
# S. aureus MRSA 12673 = assay: Microbroth dilution assay; type: cell-based; details: Staphylococcus aureus, S. aureus MRSA 12673; for MIC: read-out: MIC
# [3] = system: S. aureus ATCC 6535, S. aureus MRSA 12673 and other tested bacterial and yeast strains; assay: Microbroth dilution assay, ranges stated over several strains; type: cell-based; details: all tested microorganisms
# [4] = set-up: method as in PMID 29925826; details: NH-acid; cited from earlier work
# [5] = range over the cancer cell lines HeLa, SKOV-3 and AGS
# [6] = range over HeLa and SKOV-3 cell lines
# T1 sequence (Q15109 23-342 limits assumed): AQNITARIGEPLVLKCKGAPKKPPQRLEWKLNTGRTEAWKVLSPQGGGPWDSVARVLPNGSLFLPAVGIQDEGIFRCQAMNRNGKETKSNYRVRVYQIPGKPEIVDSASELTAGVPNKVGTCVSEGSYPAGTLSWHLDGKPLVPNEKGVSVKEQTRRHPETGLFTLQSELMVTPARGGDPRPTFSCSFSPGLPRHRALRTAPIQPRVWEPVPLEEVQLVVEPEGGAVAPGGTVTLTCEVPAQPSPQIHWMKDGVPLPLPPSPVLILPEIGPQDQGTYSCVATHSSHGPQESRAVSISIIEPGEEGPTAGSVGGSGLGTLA
SMILES,IC50 (HeLa) [mg/L],IC50 (SKOV-3) [mg/L],IC50 (AGS) [mg/L],IC50 (HaCaT) [mg/L],"IC50 [1, 5] [mg/L]",MBC (E. coli ATCC 8739) [mg/L],MIC (E. coli ATCC 8739) [mg/L],Inhibition (%) of AGE2-BSA/sRAGE interaction [2],MFC (C. albicans ATCC 10231) [mg/L],MIC (C. albicans ATCC 10231) [mg/L],MFC (C. glabrata ATCC 2001) [mg/L],MIC (C. glabrata ATCC 2001) [mg/L],MBC (S. aureus ATCC 6535) [mg/L],MIC (S. aureus ATCC 6535) [mg/L],MBC (S. aureus MRSA 12673) [mg/L],MIC (S. aureus MRSA 12673) [mg/L],inhibition at 100 µM [2] [%],MBC/MFC [3] [mg/L],pKa [4],"IC50 [1, 6] [mg/L]"
"Cc1ccc(/C=C(/C2=NCCN2)n2ccc3ccccc32)cc1 [Compound 2b, (Z)-1-[1-(4,5-dihydro-1H-imidazol-2-yl)-2-(p-tolyl)vinyl]-1H-indole]",8.19 ± 0.4,9.69 ± 0.62,16.2 ± 1.2,12.1 ± 0.55,8.19 to 16.2,> 220,220,devoid of activity and lack,> 220,220,> 220,220,110,55,> 220,220,–,–,–,–
"C(=C(\C1=NCCN1)n1ccc2ccccc21)/c1cccc2ccccc12 [Compound 2h, (Z)-1-[1-(4,5-dihydro-1H-imidazol-2-yl)-2-(naphthalen-1-yl)vinyl]-1H-indole]",10.1 ± 1.12,10.39 ± 0.1,18.9 ± 1.81,17.9 ± 1.93,10.1 to 18.9,> 240,> 240,36.3%,> 240,> 240,240,240,240,120,240,120,36.4,≥ 240,–,–
c1ccc2[nH]nnc2c1 [1H-benzotriazole],–,–,–,–,–,–,–,–,–,–,–,–,–,–,–,–,–,–,8.2,–
"Fc1ccc(/C=C(/C2=NCCN2)n2ccc3ccccc32)cc1 [Compound 2d, (Z)-1-[1-(4,5-dihydro-1H-imidazol-2-yl)-2-(4-fluorophenyl)vinyl]-1H-indole]",8.65 ± 0.68,10.2 ± 0.45,15.5 ± 0.72,7.37 ± 0.28,8.65 to 15.5,> 240,240,–,> 240,> 240,> 240,> 240,240,120,> 240,120,12,–,–,–
"Clc1ccc(/C=C(/C2=NCCN2)n2ccc3ccccc32)cc1 [Compound 2e, (Z)-1-[2-(4-chlorophenyl)-1-(4,5-dihydro-1H-imidazol-2-yl)vinyl]-1H-indole]",3.13 ± 0.3,4.4 ± 0.16,11.4 ± 0.74,3.43 ± 0.05,–,240,120,–,240,120,240,240,60,30,240,60,34.7,–,–,3.13 to 4.4
"Brc1ccc(/C=C(/C2=NCCN2)n2ccc3ccccc32)cc1 [Compound 2f, (Z)-1-[2-(4-bromophenyl)-1-(4,5-dihydro-1H-imidazol-2-yl)vinyl]-1H-indole]",2.37 ± 0.15,2.76 ± 0.18,11.1 ± 1.24,3.13 ± 0.09,2.37 to 11.1,110,110,–,110,110,220,220,55,27.5,110,55,46.6,–,–,2.37 to 2.76
